This is an account of results in publication PMC12153356, “An antisense oligomer conjugate with unpredicted bactericidal activity against Fusobacterium nucleatum” (mBio, 2025).

In assay [1] the test system is F. nucleatum subsp. nucleatum ATCC 23726 (FNN23). Briefly: Determination of bactericidal effect by CFU spot assay. It counts as cell-based, Fusobacterium nucleatum subsp. nucleatum ATCC 23726. Particulars: 10 µM, 1 × 10^5 CFU/mL in MHB, spotting on BHI agar plates, up to 96 h; three replicates. The procedure:
To investigate the bactericidal effects of PNAs an o.n. culture of FNN23 grown in ColB was diluted 1:50 in fresh ColB and grown to OD600 0.5. This culture was then diluted 1:2,500 to 1 × 10^5 CFU/mL in MHB, and 190 µL of the culture was dispensed into a transparent 96-well plate (Nunc, Thermo Fischer Scientific) together with 10 µL of respective 20× PNA stock or water and incubated at 37°C with 237 cpm shaking every 20 min. At the respective time points, 100 µL was taken out of the well, a 1:10 serial dilution series was prepared with 900 µL anoxic 1× PBS, and 5 µL of each dilution was spotted on BHI plates for CFU determination. Plates were incubated for 3 days at 37°C before taking out the plates of the anaerobic chamber for CFU counting.

Assay [2] concerns F. nucleatum subsp. nucleatum ATCC 25586 (FNN25). As to the kind of experiment: Growth inhibition assay. Particulars: 10 µM, MHB, 1 × 10^5 CFU/mL input, three replicates. Type of assay: cell-based, Fusobacterium nucleatum subsp. nucleatum ATCC 25586. From the text:
(§1) The following fusobacterial strains were used in this study: Fusobacterium nucleatum subsp. nucleatum ATCC 23726 (FNN23) acquired from the American Type Culture Collection (ATCC), F. nucleatum subsp. nucleatum ATCC 25586 (FNN25), F. nucleatum subsp. vincentii ATCC 49256 (FNV), and F. nucleatum subsp. polymorphum ATCC 10953 (FNP) acquired from the German Collection of Microorganisms and Cell Culture (DSMZ), F. nucleatum subsp. animalis 7_1 (FNA) and F. periodonticum 2_1_31 (FPE) both received as a kind gift from E. Allen-Vercoe (University of Guelph, Canada). All strains were routinely grown at 37°C in 80:10:10 (N2:H2:CO2) anaerobic conditions on 2% agar supplemented BHI plates (BHI, 1% [wt:vol] dried yeast extract, 1% [vol:vol] 50% sterile-filtered glucose solution, 5 µg/mL of hemin; 1% [vol:vol] fetal bovine serum) from frozen 20% glycerol stocks kept at −80°C. For liquid growth, the strains were cultured in Columbia broth (ColB; BD Difco). Precultures were prepared 24 h before inoculating the working culture at a 1:50 dilution in fresh ColB until OD600 0.5 was reached. Cultures were then diluted in non-cation adjusted Mueller-Hinton Broth (MHB, BD Difco) to the desired CFU/mL number. P. gingivalis (DSM 20709) was purchased from DSMZ and grown at 37°C in anaerobic conditions as mentioned above on 2% agar supplemented BHI+ plates (BHI, 1% [wt:vol] dried yeast extract, 1% [vol:vol] 50% sterile filtered glucose solution, 5 µg/ml of hemin; 10% [vol:vol] fetal bovine serum; and 1 µg/mL vitamin K3) for 4 days. […]
(§2) To determine the MIC value, broth microdilutions were performed according to the standard protocol with some modifications ([119]). […] Bacterial growth was monitored by measuring OD600 every 20 min with constant shaking in a plate reader (Biotek) under the normal atmospheric environment or positioned in the anaerobic chamber with double orbital shaking every 20 min prior to each measurement with 237 cpm at 37°C for 120 h.

Assay [3] concerns F. nucleatum subsp. animalis 7_1 (FNA). As to the kind of experiment: Growth inhibition assay. Particulars: 10 µM, MHB, 1 × 10^5 CFU/mL input, three replicates. It counts as cell-based, Fusobacterium nucleatum subsp. animalis 7_1.
Text: as §1, §2

Assay [4] concerns F. nucleatum subsp. vincentii ATCC 49256 (FNV). As to the kind of experiment: Growth inhibition assay. The settings on record: 10 µM, MHB, 1 × 10^5 CFU/mL input, three replicates. It counts as cell-based, Fusobacterium nucleatum subsp. vincentii ATCC 49256.
Text: (§3) The following fusobacterial strains were used in this study: Fusobacterium nucleatum subsp. nucleatum ATCC 23726 (FNN23) acquired from the American Type Culture Collection (ATCC), F. nucleatum subsp. nucleatum ATCC 25586 (FNN25), F. nucleatum subsp. vincentii ATCC 49256 (FNV), and F. nucleatum subsp. polymorphum ATCC 10953 (FNP) acquired from the German Collection of Microorganisms and Cell Culture (DSMZ), F. nucleatum subsp. animalis 7_1 (FNA) and F. periodonticum 2_1_31 (FPE) both received as a kind gift from E. Allen-Vercoe (University of Guelph, Canada). All strains were routinely grown at 37°C in 80:10:10 (N2:H2:CO2) anaerobic conditions on 2% agar supplemented BHI plates (BHI, 1% [wt:vol] dried yeast extract, 1% [vol:vol] 50% sterile-filtered glucose solution, 5 µg/mL of hemin; 1% [vol:vol] fetal bovine serum) from frozen 20% glycerol stocks kept at −80°C. For liquid growth, the strains were cultured in Columbia broth (ColB; BD Difco). […]
as §2

In assay [5] the test system is F. nucleatum subsp. polymorphum ATCC 10953 (FNP). As to the kind of experiment: Growth inhibition assay. Type of assay: cell-based, Fusobacterium nucleatum subsp. polymorphum ATCC 10953. Particulars: 10 µM, MHB, 1 × 10^5 CFU/mL input, three replicates.
Text: as §1, §2

Assay [6] relates to P. gingivalis (DSM 20709). As to the kind of experiment: Growth inhibition assay. It counts as cell-based, Porphyromonas gingivalis. Particulars: 10 µM, MHB, 1 × 10^5 CFU/mL input, anaerobic, OD600 for 144 h.
Text: as §3, with “Difco). Precultures were prepared 24 h before inoculating the working culture at a 1:50 dilution in fresh ColB until OD600 0.5 was reached.” for “Difco).”
To determine the MIC value, broth microdilutions were performed according to the standard protocol with some modifications ([119]). […] […] a plate reader (Biotek) under the normal atmospheric environment or positioned in the anaerobic chamber with double orbital […]

The test system of a further assay is E. coli Nissle 1917. As to the kind of experiment: Growth inhibition assay. It counts as cell-based, Escherichia coli Nissle 1917. The settings on record: 10 µM, MHB, 1 × 10^5 CFU/mL input, aerobic, 24 h. On the procedure:
Aerobic bacterial culture was conducted with E. coli K12 MG1655 (provided by D. Lee), E. coli Nissle 1917, and S. enterica serovar Typhimurium SL1344 (provided by D. Bumann, Biocenter Basel, Switzerland). The strains were streaked on lysogeny broth plates, incubated o.n. at 37°C and cultured in non-cation-adjusted MHB with aeration at 37°C and 220 rpm constant shaking.
To determine the MIC value, broth microdilutions were performed according to the standard protocol with some modifications ([119]). An overnight bacterial culture was diluted in a fresh ColB medium and grown to OD600 0.5 (mid-exponential phase). Fusobacteria were then diluted 1:2,500 or 1:250 in fresh MHB to obtain 1 × 10^5 CFU/mL or 1 × 10^6 CFU/mL as indicated. To determine the growth inhibition of P. gingivalis, an o.n. culture grown in BHI+ was diluted 1:1,500 in MHB to obtain 1 × 10^5 CFU/mL. E. coli K12, E. coli Nissle 1917, and S. enterica o.n. cultures grown in MHB were diluted 1:1,800 in fresh MHB to obtain 1 × 10^5 CFU/mL. […] Bacterial growth was monitored by measuring OD600 every 20 min with constant shaking in a plate reader (Biotek) under the normal atmospheric environment or positioned in the anaerobic chamber with double orbital shaking every 20 min prior to each measurement with 237 cpm at 37°C for 120 h.

Take “(RXR)4XB-GACATAATTGT [FUS79, non-targeting (RXR)4XB-PNA 11-mer control, (RXR)4XB-…]”: the “Bactericidal effect (viable cells, CFU) on FNN23” value in assay [1] is “no visible CFUs detected on the agar plate after 96 h”. In addition, the “Growth inhibition of FNN25” value in assay [2] was “inhibited the growth”. The “Growth inhibition of FNA” value in assay [3] is “inhibited the growth”. The “Growth inhibition of FNV” value in assay [4] is recorded as “inhibited the growth of all strains, except FNV”. Moreover, the “Growth inhibition of FNP” value in assay [5] was “inhibited the growth”. The “Growth inhibition of P. gingivalis” value in assay [6] is reported as “no growth inhibition”. Besides, in the assay on E. coli Nissle 1917, the “Growth inhibition of E. coli Nissle 1917” value is “no growth inhibition”.
Regarding RXRRXRRXRRXRXB [PNAscr], the “Bactericidal effect (viable cells, CFU) on FNN23” value in assay [1] is listed as “no bactericidal effect”. Moreover, the “Growth inhibition of FNN25” value in assay [2] is “growth retardation compared with the water control”. In addition, the “Growth inhibition of FNA” value in assay [3] is reported as “growth retardation compared with the water control”. For the same substance, in assay [4], the “Growth inhibition of FNV” value is given as “growth retardation compared with the water control”. Moreover, the “Growth inhibition of FNP” value in assay [5] is “growth retardation compared with the water control”. For the same substance, the “Growth inhibition of P. gingivalis” value in assay [6] was “no growth inhibition”. The “Growth inhibition of E. coli Nissle 1917” value with E. coli Nissle 1917 is “no growth inhibition”.
